Source: ChEMBL document CHEMBL3044794, “Antifungal activity of some tetranortriterpenoids” (2000)

How the values were obtained:
[1] = test system: Puccinia arachidis; assay: Antifungal activity against Puccinia arachidis in ground nut assessed as rust pustule count at 10 ug/cm'2 measured after 12 days from inoculation; format: functional
[2] = test system: Puccinia arachidis; assay: Antifungal activity against Puccinia arachidis in ground nut assessed as rust pustule count at 1 ug/cm'2 measured after 12 days from inoculation (reference value: 22.73 %); format: functional

SMILES | inhibition (INH) [1] | inhibition (INH) [2]
CC(=O)O[C@@H]1C[C@H]2C(C)(C)C(=O)C=C[C@]2(C)[C@H]2CC[C@]3(C)C(=CC(=O)[C@H]3c3ccoc3)[C@@]21C [AZADIRADIONE] | 76.9% | 75.7%
CC1(C)C(=O)C=C[C@@]2(C)C1=C(O)C(=O)[C@]1(C)[C@@H]2CC[C@@]2(C)[C@H](c3ccoc3)C[C@H]3O[C@]321 [CEDRELONE] | 93.4% | 98.4%
CC(=O)OC1=C2C(C)(C)C(=O)CC[C@]2(C)[C@H]2CC[C@@]3(C)[C@H](c4ccoc4)C[C@H]4O[C@]43[C@]2(C)C1=O [DIHYDROCEDRELONEDIACETATE] | 87% | 77.6%
CC1(C)C(=O)CC[C@@]2(C)C1=C(O)C(=O)[C@]1(C)[C@@H]2CC[C@@]2(C)[C@H](c3ccoc3)C[C@H]3O[C@]321 [DIHYDROCEDRELONE] | 66.7% | 42.6%
CC1(C)C(=O)C=C[C@@]2(C)C1C(O)(C(=O)O)[C@@]1(C)C[C@@]34O[C@@H]3C[C@@H](c3ccoc3)C4C[C@H]21 (stereo partly drawn) [ISOCEDRELONIC ACID] | 91.4% | 36.9%
CC1(C)O[C@H]2CC(=O)OC[C@]23[C@H]2CC[C@@]4(C)[C@H](c5ccoc5)OC(=O)[C@H]5O[C@]54[C@]2(C)C(=O)C[C@@H]13 [LIMONIN] | -15.7% | 67.7%
CC1(C)O[C@H]2CC(=O)OC[C@]23[C@H]2CC[C@@]4(C)[C@@H](c5ccoc5)OC(=O)[C@H]5O[C@]54[C@]2(C)[C@H](O)C[C@@H]13 [LIMONOL] | 62.3% | 37.9%
COC(=O)C1(O)C2C(C)(C)C(=O)C=C[C@]2(C)[C@H]2CC3[C@H](c4ccoc4)C[C@H]4O[C@@]34C[C@@]21C (stereo partly drawn) [METHYL ISOCEDRELONATE] | 2.3% | 7.6%
CC(=O)O[C@H](CC(=O)O)[C@]1(C)[C@H]2CC[C@@]3(C)[C@@H](c4ccoc4)OC(=O)[C@H]4O[C@]43[C@]2(C)C(=O)C[C@H]1C(C)(C)O [NOMILINIC ACID] | 34.2% | 28.5%
